Results: patent publication US20250179103A1, “6-OXODECAHYDROPYRROLO[1,2-A][1,5]DIAZOCINE AND 6-OXODECAHYDRO-4H-PYRROLO[2,1-D][1,5]THIAZOCINE DERIVATIVES AS STAT3 AND STAT6 MODULATORS FOR THE TREATMENT OF CANCER AND INFLAMMATORY CONDITIONS” (Recludix Pharma, Inc., priority 2022, published 2025)

Tests used:
[1] = system: pY641-STAT6 in Peripheral Blood Mononuclear Cells (PBMC); assay: MSD-pSTAT-PBMC Assay (pSTAT6, IL-4 stimulated); type: cell-based, Human; settings: compound 3 hrs, then 1 ng/mL IL-4 for 10 min
Summary of the method: (§1)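 Phospho-STAT readout used MSD electrochemiluminescence with total STAT3 or STAT6 capture in lysates of cryopreserved human PBMCs. Cells had 3 h compound exposure before a 10 min cytokine pulse: IL-6 10 ng/mL for pSTAT3, IL-4 1 ng/mL for pSTAT6. IC50 came from background-subtracted, DMSO-normalised signal, with categories A≤100 nM up to D>3 μM.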

[2] = system: pY705-STAT3 in Peripheral Blood Mononuclear Cells (PBMC); assay: MSD-pSTAT-PBMC Assay (pSTAT3, IL-6 stimulated); type: cell-based, Human; settings: compound 3 hrs, then 10 ng/mL IL-6 for 10 min
Summary of the method: as §1

SMILES	IC50 ([1]; Homo sapiens)	IC50 ([2]; Homo sapiens)	IC50 [1]	IC50 [2]
CCOP(=O)(OCC)C(F)(F)c1ccc2sc(C(=O)N[C@H]3CN(C(C)=O)CC[C@H]4CC[C@@H](C(=O)N(C)c5ccccc5)N4C3=O)cc2c1 [Compound 317, diethyl ((2-(((5S,8S, 10aR)-3-acetyl-8-(methyl (phenyl)carbamoyl)-6-oxodecahydro-pyrrolo[1,2-a][1,5]diazocin-5-yl)carbamoyl)benzo[b]thiophen-5-yl)difluoro-methyl)phos-phonate]	> 3000 nM	> 3000 nM	–	–
CC(C)(C)C(=O)OCOP(=O)(OCOC(=O)C(C)(C)C)C(F)(F)c1ccc2sc(C(=O)N[C@H]3CN(CC(F)F)CC[C@H]4CC[C@@H](C(=O)N5CC(C(=O)N6CCOCC6)C5)N4C3=O)cc2c1 [Compound 350, ((((2-(((5S,8S,10aR)-3-(2,2-difluoroethyl)-8-(3-(morpholine-4-carbonyl)azetidine-1-carbonyl)-6-oxodecahydropyrrolo[1,2-a][1,5]diazocin-5-yl)carbamoyl)benzo[b]thiophen-5-yl)difluoromethyl)phosphoryl)bis (oxy))bis(methylene) bis(2,2-dimethylpropanoate)]	–	≤ 100 nM	100 to 1000 nM	–
CC(=O)N1CC[C@H]2CC[C@@H](C(=O)N(C)c3ccc(N4CCOCC4)cc3)N2C(=O)[C@@H](NC(=O)c2cc3cc(C(F)(F)P(=O)(OCOC(=O)C(C)(C)C)OCOC(=O)C(C)(C)C)ccc3s2)C1 [Compound 311, ((((2-(((5S, 8S,10aR)-3-acetyl-8-(methyl(4-morpholino-phenyl)carbamoyl)-6-oxodecahydro-pyrrolo[1,2-a][1,5]diazocin-5-yl)carbamoyl)benzo[b]thiophen-5-yl)difluoro-methyl)phos-phoryl)bis(oxy)) bis(methylene) bis(2,2-dimethylpro-panoate)]	100 to 1000 nM	1000 to 3000 nM	–	–
CC(C)(C)C(=O)OCOP(=O)(OCOC(=O)C(C)(C)C)C(F)(F)c1ccc2ccc(C(=O)NC3CN(CC(F)F)CCC4CCC(C(=O)N5CCC(c6ccccc6)C(C#N)C5)N4C3=O)cc2c1 [Compound 345, ((((7-(((5S,8S,10aR)-8-((rel-trans)-3-cyano-4-phenylpiperidine-1-carbonyl)-3-(2,2-difluoroethyl)-6-oxodecahydropyrrolo[1,2-a][1,5]diazocin-5-yl)carbamoyl)naphthalen-2-yl)difluoromethyl)phosphoryl)bis(oxy)) bis(methylene) bis(2,2-dimethylpropanoate)]	–	–	100 to 1000 nM	1000 to 3000 nM
CC(=O)N1CC[C@H]2CC[C@@H](C(=O)N(C)c3ccccc3)N2C(=O)[C@@H](NC(=O)c2cc3cc(C(F)(F)P(=O)(OCCSC(=O)C(C)(C)C)OCCSC(=O)C(C)(C)C)ccc3s2)C1 [Compound 291, S,S′-(((((2-(((5S,8S, 10aR)-3-acetyl-8-(methyl (phenyl)carbamoyl)-6-oxodecahydro-pyrrolo[1,2-a][1,5]diazocin-5-yl)carbamoyl)benzo[b]thiophen-5-yl)difluoro-methyl)phos-phoryl)bis(oxy))bis(ethane-2,1-diyl)) bis(2,2-dimethylpro-panethioate)]	> 3000 nM	> 3000 nM	–	–
COCC(C)(C)OC(=O)OCOP(=O)(OCOC(=O)OC(C)(C)COC)C(F)(F)c1ccc2sc(C(=O)N[C@H]3CN(C(C)=O)CC[C@H]4CC[C@@H](C(=O)N(C)c5ccccc5)N4C3=O)cc2c1 [Compound 287, ((((2-(((5S, 8S,10aR)-3-acetyl-8-(methyl (phenyl)carbamoyl)-6-oxodecahydro-pyrrolo[1,2-a][1,5]diazocin-5-yl)carbamoyl)benzo[b]thiophen-5-yl)difluoro-methyl)phosphoryl)bis(oxy)) bis(methylene) bis(1-methoxy-2-methylpropan-2-yl) bis(carbonate)]	> 3000 nM	> 3000 nM	–	–
CCCN(CCC)C(=O)OCOP(=O)(OCOC(=O)N(CCC)CCC)C(F)(F)c1ccc2sc(C(=O)N[C@@H]3CN(C(C)=O)CC[C@@H]4CC[C@H](C(=O)N(C)c5ccccc5)N4C3=O)cc2c1 [Compound 292, ((((2-(((5R,8R, 10aS)-3-acetyl-8-(methyl (phenyl)carbamoyl)-6-oxodecahydro-pyrrolo[1,2-a][1,5]diazocin-5-yl)carbamoyl)benzo[b]thiophen-5-yl)difluoro-methyl)phos-phoryl)bis(oxy)) bis(methylene) bis(dipropyl-carbamate)]	> 3000 nM	> 3000 nM	–	–
CCCC(=O)SCCOP(=O)(OCCSC(=O)CCC)C(F)(F)c1ccc2ccc(C(=O)N[C@H]3CN(C(=O)c4n[nH]c5ccc(C)cc45)CC[C@H]4CC[C@@H](C(=O)N5CC(c6ccccc6)[C@@H](C#N)C5)N4C3=O)cc2c1 (relative stereo) [Compound 336, S,S′-(((((7-(((5S,8S,10aR)-8-((rel-trans)-3-cyano-4-phenylpyrrolidine-1-carbonyl)-3-(5-methyl-1H-indazole-3-carbonyl)-6-oxodecahydropyrrolo[1,2-a][1,5]diazocin-5-yl)carbamoyl)naphthalen-2-yl)difluoromethyl)phosphoryl)bis(oxy))bis(ethane-2,1-diyl)) dibutanethioate]	≤ 100 nM	1000 to 3000 nM	–	–
CC(C)(C)C(=O)OCOP(=O)(OCOC(=O)C(C)(C)C)C(F)(F)c1ccc2ccc(C(=O)NC3CN(CC(F)F)CCC4CCC(C(=O)N5CC(C#N)C(c6cc(F)cc(F)c6)C5)N4C3=O)cc2c1 [Compound 344, ((((7-(((5S,8S,10aR)-8-((rel-trans)-3-cyano-4-(3,5-difluorophenyl)pyrrolidine-1-carbonyl)-3-(2,2-difluoroethyl)-6-oxodecahydropyrrolo[1,2-a][1,5]diazocin-5-yl)carbamoyl)naphthalen-2-yl)difluoromethyl)phosphoryl)bis(oxy)) bis(methylene) bis(2,2-dimethylpropanoate)]	–	–	100 to 1000 nM	1000 to 3000 nM
CC(=O)N1CC[C@H]2CC[C@@H](C(=O)N(C)c3ccccc3)N2C(=O)[C@@H](NC(=O)c2cc3cc(C(F)(F)P(=O)(OCOC(=O)OCC(C)C)OCOC(=O)OCC(C)C)ccc3s2)C1 [Compound 284, ((((2-(((5S,8S, 10aR)-3-acetyl-8-(methyl (phenyl)carbamoyl)-6-oxodecahydro-pyrrolo[1,2-a][1,5]diazocin-5-yl)carbamoyl)benzo[b]thiophen-5-yl)difluoro-methyl)phos-phoryl)bis(oxy)) bis(methylene) diisobutyl bis(carbonate)]	≤ 100 nM	100 to 1000 nM	–	–
CC(=O)N1CC[C@H]2CC[C@@H](C(=O)N(C)C3CCN(S(C)(=O)=O)CC3)N2C(=O)[C@@H](NC(=O)c2cc3cc(C(F)(F)P(=O)(OCOC(=O)C(C)(C)C)OCOC(=O)C(C)(C)C)ccc3s2)C1 [Compound 312, ((((2-(((5S, 8S,10aR)-3-acetyl-8-(methyl(1-(methyl-sulfonyl)piperidin-4-yl)carbamoyl)-6-oxodecahydro-pyrrolo[1,2-a][1,5]diazocin-5-yl)carbamoyl)benzo[b]thiophen-5-yl)difluoro-methyl)phos-phoryl)bis(oxy))bis (methylene) bis(2,2-dimethylpro-panoate)]	100 to 1000 nM	> 3000 nM	–	–
CC(=O)N1CC[C@H]2CC[C@@H](C(=O)N3C[C@@H](C#N)[C@H](c4ccccc4)C3)N2C(=O)[C@@H](NC(=O)c2cc3cc(C(F)(F)P(=O)(OCOC(=O)OC(C)C)OCOC(=O)OC(C)C)ccc3s2)C1 (single isomer, unassigned) [Compound 282, ((((2-(((5S,8S, 10aR)-3-acetyl-8-((3S,4R or 3R,4S)-3-cyano-4-phenyl-pyrrolidine-1-carbonyl)-6-oxodecahydro-pyrrolo[1,2-a][1,5]diazocin-5-yl)carbamoyl)benzo[b]thiophen-5-yl)difluoro-methyl)phos-phoryl)bis(oxy)) bis(methylene) diisopropyl bis(carbonate)]	≤ 100 nM	1000 to 3000 nM	–	–
CCN1CC[C@H]2CC[C@@H](C(=O)N3C[C@@H](C#N)[C@H](c4ccccc4)C3)N2C(=O)[C@@H](NC(=O)c2ccc3ccc(C(F)(F)P(=O)(OCCSC(=O)C(C)(C)C)OCCSC(=O)C(C)(C)C)cc3c2)C1 (single isomer, unassigned) [Compound 343, S,S′-(((((7-(((5S,8S,10aR)-8-((3S,4R or 3R,4S)-3-cyano-4-phenylpyrrolidine-1-carbonyl)-3-ethyl-6-oxodecahydropyrrolo[1,2-a][1,5]diazocin-5-yl)carbamoyl)naphthalen-2-yl)difluoromethyl)phosphoryl)bis(oxy))bis(ethane-2,1-diyl))bis(2,2-dimethylpropanethioate)]	100 to 1000 nM	1000 to 3000 nM	–	–
CCCC(=O)SCCOP(=O)(OCOC(=O)OC(C)C)C(F)(F)c1ccc2ccc(C(=O)N[C@H]3CN(C(C)=O)CC[C@H]4CC[C@@H](C(=O)N5C[C@H](c6cc[nH]c(=O)c6)[C@@H](C#N)C5)N4C3=O)cc2c1 (single isomer, unassigned) [Compound 303, S-(2-((((7-(((5S,8S, 10aR)-3-acetyl-8-((3R,4S or 3S,4R)-3-cyano-4-(2-oxo-1,2-dihydro-pyridin-4-yl)pyrrolidine-1-carbonyl)-6-oxodecahydro-pyrrolo[1,2-a][1,5]diazocin-5-yl)carbamoyl)naphthalen-2-yl)difluoro-methyl)(((iso-propoxy-carbonyl)oxy)methoxy)phosphoryl)oxy)ethyl) butanethioate]	100 to 1000 nM	1000 to 3000 nM	–	–
CC(=O)N1CC[C@H]2CC[C@@H](C(=O)N(C)c3ccccc3)N2C(=O)[C@@H](NC(=O)c2cc3cc(C(F)(F)P(=O)(OCOC(=O)C(C)(C)C)OCOC(=O)C(C)(C)C)ccc3s2)C1 [Compound 296, ((((2-(((5S,8S, 10aR)-3-acetyl-8-(methyl (phenyl)carbamoyl)-6-oxodecahydro-pyrrolo[1,2-a][1,5]diazocin-5-yl)carbamoyl)benzo[b]thiophen-5-yl)difluoro-methyl)phos-phoryl)bis(oxy)) bis(methylene) bis(2,2-dimethylpro-panoate)]	≤ 100 nM	100 to 1000 nM	–	–
